Assay results: US7955623B2, “Pharmaceutical preparations for treating inflammatory diseases” (priority 2008, dated 2011)
Entries after “also recorded” stand apart in the source; their conditions may differ. Peptide text beside a SMILES is read from it. * marks the point of attachment. Cbz = O=C(OCc1ccccc1)*; OtBu = CC(C)(C)O*

Test system: NF-κB
Experiment: Electrophoretic mobility shift assay of TNF-induced NF-κB activation in cell lines
Type: cell-based, human
Conditions: for Effect on TNF-induced NF-κB-activity of ozonized substance in phosphate-buffered saline: medium concentration in PBS, 100% ozonation state, 1 hr preincubation, TNF 1 ng/mL 15 min; for Inhibition of TNF-induced NF-κB-activity: preincubation 10 μM, 1 hr, n=3
Experimental: A) BHY cells were preincubated with serum-free O3-medium (15 min; the ozonation state is indicated in %) before TNF was added (20 ng/mL, 45 min) and electrophoretic mobility shift assay was performed (NF-κB and Sp-1 binding). The asterisk marks a control reaction in which a 100-fold concentration of unlabeled consensus oligonucleotide was added. B) Cells were treated with O3-medium (HGF-1, 45 min; HeLa, 1 hr) followed by stimulation with TNF (HGF-1, 5 ng/mL for 45 min; HeLa, 1 ng/mL for 15 min). NF-κB-activity normalized to Sp-1 is shown (densitometric analysis). NF-κB-activity after TNF stimulation following preincubation with non-ozonized medium was defined as 100% (dashed line) (n=3, mean±SD). C) Periodontal ligament tissue debris separated into equal-sized portions was incubated (1 hr, 37° C.) with serum-free non-ozonized medium (indicated by “-”) or O3-medium (100% ozonation state, indicated by “+”) followed by 2 hr incubation in fresh medium without ozone. The samples were shock frozen, homogenized and nuclear extracts prepared. Left: Electrophoretic mobility shift assays were performed (NF-κB and Sp-1 binding). The asterisk marks a control reaction in which a 100-fold concentration of unlabeled consensus oligonucleotide was added. Right: Densitometrically measured NF-κB-activity was normalized to Sp-1 (n=3, mean±SD). […] A) HeLa cells were incubated with O3-phosphate-buffered saline (1 hr) followed by TNF stimulation (1 ng/mL, 15 min). The ozonation state is indicated in %. Electrophoretic mobility shift assay was performed to determine NF-κB-activity as well as Sp-1 binding. B) Cells were preincubated (1 hr) with non-ozonized or ozonized amino acids (medium concentration) dissolved in phosphate-buffered saline (100% ozonation state) followed by stimulation with TNF (1 ng/mL, 15 min). The activation of NF-κB was determined by electrophoretic mobility shift assay. C) Densitometric analysis of the NF-κB-activity normalized to Sp-1 is shown (n=3, mean±SD). NF-κB-activity of cells preincubated with non-ozonized amino acids in phosphate-buffered saline and stimulated with TNF was defined as 100% (dashed line). D) HeLa cells were preincubated with non-ozonized or ozonized glucose (medium concentration) followed by TNF stimulation. The NF-κB-activity compared to Sp-1 binding was determined by electrophoretic mobility shift assay. […] The proteasome inhibitor PSI was from Calbiochem (Darmstadt, Germany). A potential toxicity of culture conditions was monitored by cell morphology/count, trypan-blue-exclusion and the Luminescent-Cell-Viability-Assay (Promega, Mannheim, Germany). […] Aqueous ozone was applied to the cells in form of ozonized medium without fetal calf serum (O3-medium) or ozonized phosphate-buffered saline (O3-phosphate-buffered saline) without/with 1 g/L amino acids or 2 g/L glucose. These solutions were treated with gaseous ozone (75 μg/mL, 15 min) using an ozone generator (Ozonosan-photonic, Dr. […], Germany). This condition, which applied to water would result in a final ozone concentration of 20 μg/mL (saturation point), was defined as the 100% ozonation state. For dose response experiments, the solutions were accordingly diluted. The ozone gas concentration was monitored by a photometer integrated in the ozone generator and confirmed by another ozone gas detector (GM-6000-NZL, Anseros, Tubingen, Germany). The ozone concentrations of the respective aqueous solutions were monitored photometrically ([…], England). […] The prototypic immunoglobulin κ-chain oligonucleotide was used as a probe and labeled with the Klenow fragment of DNA polymerase I (Roche, Penzberg, Germany) together with [α-^32P]dCTP (PerkinElmer-LifeSciences, Brussels, Belgium). The Sp-1 consensus oligonucleotide (Promega) was labeled with [γ-^32P]ATP (PerkinElmer-LifeSciences) and T4-polynucleotide-kinase (Roche). Samples were run on non-denaturing 4% polyacrylamide gels and analyzed by autoradiography.

| Structure (SMILES) | Effect on TNF-induced NF-κB-activity of ozonized substance in phosphate-buffered saline | Inhibition of TNF-induced NF-κB-activity (BHY cells) | Inhibition of TNF-induced NF-κB-activity (HeLa cells) |
| --- | --- | --- | --- |
| CSCC[C@H](N)C(=O)O [methionine] | clear inhibition |  |  |
| CC[C@H](C)[C@H](NC(=O)OCc1ccccc1)C(=O)N[C@@H](CCC(=O)OC(C)(C)C)C(=O)N[C@@H](C)C(=O)N[C@H](C=O)CC(C)C [PSI, reference compound] (Cbz-IE(OtBu)AL-aldehyde) |  | 68±7% | 75±6% |
| C[C@H](N)C(=O)O [alanine] | slight reduction |  |  |
| N[C@@H](Cc1c[nH]c2ccccc12)C(=O)O [tryptophan] | blocked the NF-κB signal almost completely; also recorded: most effective |  |  |
| N[C@@H](CS)C(=O)O [cysteine] | blocked the NF-κB signal almost completely; also recorded: most effective |  |  |
| NCC(=O)O [glycine] | did not have any effect |  |  |
